Assay results taken from ChEMBL document CHEMBL6134890, “Terminally Symmetric β-Turn Peptides for Multidrug-Resistant Bacterial Infections” (J Med Chem, 2025).
Values after ≈ are worked out from the molar mass of the structure shown. Bridge positions count the residues as written; N and C are the ends. Square brackets hold non-standard residues; d marks the D form. Peptide text beside a SMILES is read from it. * marks the point of attachment. X1 = CC[C@H](C)CCCCC(=O)*; Dab = NCC[C@H](N)C(=O)O

Legend:
Staphylococcus aureus [1] = assay: Antimicrobial activity against Staphylococcus aureus ATCC 25923 assessed as reduction in bacterial growth by broth dilution method; assay type: functional
Escherichia coli [2] = assay: Antimicrobial activity against Escherichia coli ATCC 25922 assessed as reduction in bacterial growth by broth dilution method; assay type: functional
Staphylococcus aureus [3] = assay: Antimicrobial activity against multi-drug resistant Staphylococcus aureus assessed as reduction in bacterial growth by broth dilution method; assay type: functional
Escherichia coli [4] = assay: Antimicrobial activity against multi-drug resistant Escherichia coli assessed as reduction in bacterial growth by broth dilution method; assay type: functional
[5] = Hemolytic activity in human Red blood cell assessed as hemolysis incubated for 1 hrs by microplate reader based analysis; assay type: toxicity; settings: erythrocyte
[6] = tested on: Staphylococcus epidermidis; assay: Antimicrobial activity against multi-drug resistant Staphylococcus epidermidis assessed as reduction in bacterial growth by broth dilution method; assay type: functional
Enterococcus faecalis = assay: Antimicrobial activity against multi-drug resistant Enterococcus faecalis assessed as reduction in bacterial growth by broth dilution method; assay type: functional
Acinetobacter baumannii = assay: Antimicrobial activity against multi-drug resistant Acinetobacter baumannii assessed as reduction in bacterial growth by broth dilution method; assay type: functional
Klebsiella pneumoniae = assay: Antimicrobial activity against multi-drug resistant Klebsiella pneumoniae assessed as reduction in bacterial growth by broth dilution method; assay type: functional

Row | Structure (SMILES) | MIC (Staphylococcus aureus [1]) | MIC (Escherichia coli [2]) | MIC (Staphylococcus aureus [3]) | MIC (Escherichia coli [4]) | HC10 [5] | MIC [6] | MIC (Enterococcus faecalis) | MIC (Acinetobacter baumannii) | MIC (Klebsiella pneumoniae)
1 | CC[C@H](C)[C@H](N)C(=O)N[C@@H](CCCCN)C(=O)N[C@H](C(=O)N[C@@H](CCCCN)C(=O)N[C@@H](Cc1ccccc1)C(=O)N1CCC[C@H]1C(=O)N[C@@H](Cc1c[nH]c2ccccc12)C(=O)N[C@@H](Cc1c[nH]c2ccccc12)C(=O)N[C@@H](Cc1c[nH]c2ccccc12)C(=O)N1CCC[C@H]1C(=O)N[C@@H](Cc1ccccc1)C(=O)N[C@@H](CCCCN)C(=O)N[C@H](C(=O)N[C@@H](CCCCN)C(=O)N[C@H](C(N)=O)[C@@H](C)CC)[C@@H](C)CC)[C@@H](C)CC (H-IKIKFPWWWPFKIKI-NH2) | 16 µM (≈ 32.5 µg/mL) | 16 µM (≈ 32.5 µg/mL) | 16 µM (≈ 32.5 µg/mL) | 32 µM (≈ 64.9 µg/mL) | 9.48 µM | 16 µM (≈ 32.5 µg/mL) | 16 µM (≈ 32.5 µg/mL) | 16 µM (≈ 32.5 µg/mL) | 256 µM (≈ 520 µg/mL)
2 | CC[C@H](C)[C@H](N)C(=O)N[C@@H](CCCCN)C(=O)N[C@H](C(=O)N[C@@H](CCCCN)C(=O)N[C@H](C(=O)N[C@@H](CCCCN)C(=O)N[C@@H](Cc1ccccc1)C(=O)N1CCC[C@H]1C(=O)N[C@@H](Cc1c[nH]c2ccccc12)C(=O)N[C@@H](Cc1c[nH]c2ccccc12)C(=O)N[C@@H](Cc1c[nH]c2ccccc12)C(=O)N1CCC[C@H]1C(=O)N[C@@H](Cc1ccccc1)C(=O)N[C@@H](CCCCN)C(=O)N[C@H](C(=O)N[C@@H](CCCCN)C(=O)N[C@H](C(=O)N[C@@H](CCCCN)C(=O)N[C@H](C(N)=O)[C@@H](C)CC)[C@@H](C)CC)[C@@H](C)CC)[C@@H](C)CC)[C@@H](C)CC (H-IKIKIKFPWWWPFKIKIKI-NH2) | 128 µM (≈ 322 µg/mL) | 128 µM (≈ 322 µg/mL) | 64 µM (≈ 161 µg/mL) | 128 µM (≈ 322 µg/mL) | 6.56 µM | 128 µM (≈ 322 µg/mL) | 128 µM (≈ 322 µg/mL) | 128 µM (≈ 322 µg/mL) | 64 µM (≈ 161 µg/mL)
3 | CC[C@H](C)[C@H](N)C(=O)N[C@@H](CCCCN)C(=O)N[C@H](C(=O)N[C@@H](CCCCN)C(=O)N[C@H](C(=O)N[C@@H](CCCCN)C(=O)N1CCC[C@H]1C(=O)N[C@@H](Cc1c[nH]c2ccccc12)C(=O)N[C@@H](Cc1c[nH]c2ccccc12)C(=O)N[C@@H](Cc1c[nH]c2ccccc12)C(=O)N1CCC[C@H]1C(=O)N[C@@H](CCCCN)C(=O)N[C@H](C(=O)N[C@@H](CCCCN)C(=O)N[C@H](C(=O)N[C@@H](CCCCN)C(=O)N[C@H](C(N)=O)[C@@H](C)CC)[C@@H](C)CC)[C@@H](C)CC)[C@@H](C)CC)[C@@H](C)CC (H-IKIKIKPWWWPKIKIKI-NH2) | 4 µM (≈ 8.87 µg/mL) | 64 µM (≈ 142 µg/mL) | 8 µM (≈ 17.7 µg/mL) | 64 µM (≈ 142 µg/mL) | 116.64 µM | 2 µM (≈ 4.44 µg/mL) | 2 µM (≈ 4.44 µg/mL) | 64 µM (≈ 142 µg/mL) | 64 µM (≈ 142 µg/mL)
4 | CC[C@H](C)[C@H](N)C(=O)N[C@@H](CCCCN)C(=O)N[C@H](C(=O)N[C@@H](CCCCN)C(=O)N1CCC[C@H]1C(=O)N[C@@H](Cc1c[nH]c2ccccc12)C(=O)N[C@@H](Cc1c[nH]c2ccccc12)C(=O)N[C@@H](Cc1c[nH]c2ccccc12)C(=O)N1CCC[C@H]1C(=O)N[C@@H](CCCCN)C(=O)N[C@H](C(=O)N[C@@H](CCCCN)C(=O)N[C@H](C(N)=O)[C@@H](C)CC)[C@@H](C)CC)[C@@H](C)CC (H-IKIKPWWWPKIKI-NH2) | 8 µM (≈ 13.9 µg/mL) | 16 µM (≈ 27.8 µg/mL) | 8 µM (≈ 13.9 µg/mL) | 16 µM (≈ 27.8 µg/mL) | > 256 µM | 16 µM (≈ 27.8 µg/mL) | 16 µM (≈ 27.8 µg/mL) | 16 µM (≈ 27.8 µg/mL) | 64 µM (≈ 111 µg/mL)
5 | NCCCC[C@H](NC(=O)[C@H](Cc1ccccc1)NC(=O)[C@H](CCCCN)NC(=O)[C@H](Cc1ccccc1)NC(=O)[C@H](CCCCN)NC(=O)[C@H](Cc1ccccc1)NC(=O)[C@@H]1CCCN1C(=O)[C@H](Cc1c[nH]c2ccccc12)NC(=O)[C@H](Cc1c[nH]c2ccccc12)NC(=O)[C@H](Cc1c[nH]c2ccccc12)NC(=O)[C@@H]1CCCN1C(=O)[C@H](Cc1ccccc1)NC(=O)[C@H](CCCCN)NC(=O)[C@H](Cc1ccccc1)NC(=O)[C@H](CCCCN)NC(=O)[C@H](Cc1ccccc1)NC(=O)[C@@H](N)CCCCN)C(N)=O (H-KFKFKFPWWWPFKFKFK-NH2) | 8 µM (≈ 19.4 µg/mL) | 8 µM (≈ 19.4 µg/mL) | 8 µM (≈ 19.4 µg/mL) | 8 µM (≈ 19.4 µg/mL) | 6.39 µM | 4 µM (≈ 9.69 µg/mL) | 4 µM (≈ 9.69 µg/mL) | 4 µM (≈ 9.69 µg/mL) | 16 µM (≈ 38.8 µg/mL)
6 | CC[C@H](C)[C@H](NC(=O)[C@H](CCCCN)NC(=O)[C@@H](NC(=O)[C@H](Cc1ccccc1)NC(=O)[C@@H]1CCCN1C(=O)[C@H](Cc1c[nH]c2ccccc12)NC(=O)[C@H](Cc1c[nH]c2ccccc12)NC(=O)[C@H](Cc1c[nH]c2ccccc12)NC(=O)[C@@H]1CCCN1C(=O)[C@H](Cc1ccccc1)NC(=O)[C@@H](NC(=O)[C@H](CCCCN)NC(=O)[C@@H](NC(=O)[C@@H](N)CCCCN)[C@@H](C)CC)[C@@H](C)CC)[C@@H](C)CC)C(=O)N[C@@H](CCCCN)C(N)=O (H-KIKIFPWWWPFIKIK-NH2) | 8 µM (≈ 16.2 µg/mL) | 8 µM (≈ 16.2 µg/mL) | 8 µM (≈ 16.2 µg/mL) | 16 µM (≈ 32.5 µg/mL) | 4.32 µM | 8 µM (≈ 16.2 µg/mL) | 16 µM (≈ 32.5 µg/mL) | 8 µM (≈ 16.2 µg/mL) | 256 µM (≈ 520 µg/mL)
7 | CC[C@H](C)[C@H](NC(=O)[C@H](CCCCN)NC(=O)[C@@H](NC(=O)[C@H](CCCCN)NC(=O)[C@H](Cc1ccccc1)NC(=O)[C@@H]1CCCN1C(=O)[C@H](Cc1c[nH]c2ccccc12)NC(=O)[C@H](Cc1c[nH]c2ccccc12)NC(=O)[C@H](Cc1c[nH]c2ccccc12)NC(=O)[C@@H]1CCCN1C(=O)[C@H](Cc1ccccc1)NC(=O)[C@H](CCCCN)NC(=O)[C@@H](NC(=O)[C@H](CCCCN)NC(=O)[C@@H](NC(=O)[C@@H](N)CCCCN)[C@@H](C)CC)[C@@H](C)CC)[C@@H](C)CC)C(=O)N[C@@H](CCCCN)C(N)=O (H-KIKIKFPWWWPFKIKIK-NH2) | 4 µM (≈ 9.14 µg/mL) | 16 µM (≈ 36.6 µg/mL) | 4 µM (≈ 9.14 µg/mL) | 8 µM (≈ 18.3 µg/mL) | 29.44 µM | 8 µM (≈ 18.3 µg/mL) | 4 µM (≈ 9.14 µg/mL) | 8 µM (≈ 18.3 µg/mL) | 32 µM (≈ 73.2 µg/mL)
8 | CC[C@H](C)[C@H](NC(=O)[C@H](CCCCN)NC(=O)[C@@H](NC(=O)[C@H](CCCCN)NC(=O)[C@@H](NC(=O)[C@H](Cc1ccccc1)NC(=O)[C@@H]1CCCN1C(=O)[C@H](Cc1c[nH]c2ccccc12)NC(=O)[C@H](Cc1c[nH]c2ccccc12)NC(=O)[C@H](Cc1c[nH]c2ccccc12)NC(=O)[C@@H]1CCCN1C(=O)[C@H](Cc1ccccc1)NC(=O)[C@@H](NC(=O)[C@H](CCCCN)NC(=O)[C@@H](NC(=O)[C@H](CCCCN)NC(=O)[C@@H](NC(=O)[C@@H](N)CCCCN)[C@@H](C)CC)[C@@H](C)CC)[C@@H](C)CC)[C@@H](C)CC)[C@@H](C)CC)C(=O)N[C@@H](CCCCN)C(N)=O (H-KIKIKIFPWWWPFIKIKIK-NH2) | 128 µM (≈ 322 µg/mL) | 128 µM (≈ 322 µg/mL) | 128 µM (≈ 322 µg/mL) | 128 µM (≈ 322 µg/mL) | 7.28 µM | 128 µM (≈ 322 µg/mL) | 64 µM (≈ 161 µg/mL) | 128 µM (≈ 322 µg/mL) | 64 µM (≈ 161 µg/mL)
9 | CC[C@H](C)[C@H](NC(=O)[C@H](CCCCN)NC(=O)[C@@H](NC(=O)[C@H](CCCCN)NC(=O)[C@@H](NC(=O)[C@@H]1CCCN1C(=O)[C@H](Cc1c[nH]c2ccccc12)NC(=O)[C@H](Cc1c[nH]c2ccccc12)NC(=O)[C@H](Cc1c[nH]c2ccccc12)NC(=O)[C@@H]1CCCN1C(=O)[C@@H](NC(=O)[C@H](CCCCN)NC(=O)[C@@H](NC(=O)[C@H](CCCCN)NC(=O)[C@@H](NC(=O)[C@@H](N)CCCCN)[C@@H](C)CC)[C@@H](C)CC)[C@@H](C)CC)[C@@H](C)CC)[C@@H](C)CC)C(=O)N[C@@H](CCCCN)C(N)=O (H-KIKIKIPWWWPIKIKIK-NH2) | 4 µM (≈ 8.87 µg/mL) | 16 µM (≈ 35.5 µg/mL) | 8 µM (≈ 17.7 µg/mL) | 16 µM (≈ 35.5 µg/mL) | 33.38 µM | 8 µM (≈ 17.7 µg/mL) | 8 µM (≈ 17.7 µg/mL) | 64 µM (≈ 142 µg/mL) | 16 µM (≈ 35.5 µg/mL)
10 | CC[C@H](C)[C@H](NC(=O)[C@H](CCCCN)NC(=O)[C@@H](NC(=O)[C@@H]1CCCN1C(=O)[C@H](Cc1c[nH]c2ccccc12)NC(=O)[C@H](Cc1c[nH]c2ccccc12)NC(=O)[C@H](Cc1c[nH]c2ccccc12)NC(=O)[C@@H]1CCCN1C(=O)[C@@H](NC(=O)[C@H](CCCCN)NC(=O)[C@@H](NC(=O)[C@@H](N)CCCCN)[C@@H](C)CC)[C@@H](C)CC)[C@@H](C)CC)C(=O)N[C@@H](CCCCN)C(N)=O (H-KIKIPWWWPIKIK-NH2) | 4 µM (≈ 6.94 µg/mL) | 8 µM (≈ 13.9 µg/mL) | 4 µM (≈ 6.94 µg/mL) | 8 µM (≈ 13.9 µg/mL) | > 256 µM | 16 µM (≈ 27.8 µg/mL) | 8 µM (≈ 13.9 µg/mL) | 16 µM (≈ 27.8 µg/mL) | 32 µM (≈ 55.5 µg/mL)
11 | CC(C)CCCCC(=O)N[C@@H](CCN)C(=O)N[C@H](C(=O)N[C@@H](CCN)C(=O)N[C@H]1CCNC(=O)[C@H]([C@@H](C)O)NC(=O)[C@H](CCN)NC(=O)[C@H](CCN)NC(=O)[C@H](CC(C)C)NC(=O)[C@@H](Cc2ccccc2)NC(=O)[C@H](CCN)NC1=O)[C@@H](C)O.CC[C@H](C)CCCCC(=O)N[C@@H](CCN)C(=O)N[C@H](C(=O)N[C@@H](CCN)C(=O)N[C@H]1CCNC(=O)[C@H]([C@@H](C)O)NC(=O)[C@H](CCN)NC(=O)[C@H](CCN)NC(=O)[C@H](CC(C)C)NC(=O)[C@@H](Cc2ccccc2)NC(=O)[C@H](CCN)NC1=O)[C@@H](C)O (X1-[Dab]T[Dab][Dab][Dab][dF]L[Dab][Dab]T; lactam 4-C) | 16 µM | 2 µM | 16 µM | 2 µM | – | 16 µM | 128 µM | 2 µM | 2 µM
